Measurements as given in US4393052A, “Antitumor anthracycline glycosides, their preparation, intermediates therefor, and compositions and use thereof” (priority 1980, dated 1983).
In brackets after ≈: the same amount, converted by molar mass. Several values for one entry are separate records, joined by “and”; a condition that tells them apart may be missing. Equal values may be shown once. Read-outs that look alike come from different tables or passages of the source.

How the values were obtained:
[1] = system: P388 ascitic leukemia; test: Activity against P388 ascitic leukemia; assay type: in vivo, mice; conditions: for T/C (median survival time of treated mice/median survival time of controls) / Toxicity deaths: day 1 after tumor inoculation
Experimental: As regards the in vivo tests, preliminary experiments were carried out on P388 ascitic leukemia.
Activity against P388 ascitic leukemia. Treatment i.p. on day
1 after tumor inoculation.
^a Median survival time of treated mice/median survival time of […]

[2] = system: HeLa cells; test: Activity on HeLa cells cloning efficiency in vitro; assay type: cell-based; conditions: for ID50 / IC50: several values = separate experiments; for ID50: 1440 min; for activity on HeLa cells cloning efficiency in vitro (in words): compared with daunorubicin; for activity at 0.1 µg/mL: dose 100 ng/ml
Excerpt: Activity on HeLa cells cloning efficiency in vitro. Treatment

[3] = 2.9 mg/kg i.p., data of 3 experiments
[4] = HeLa cloning efficiency, treatment for 24 hours
[5] = Homo sapiens, HeLa, 24 h, HeLa cloning efficiency, treatment for 24 hours, read-out: ID50 (the source's name)
[6] = Homo sapiens, HeLa, 24 h, 24 hours, read-out: % of controls

SMILES	T/C (median survival time of treated mice/median survival time of controls) ([1]; 4.4 mg/kg i.p.)	Toxicity deaths ([1]; 4.4 mg/kg i.p.)	T/C (median survival time of treated mice/median survival time of controls) ([1]; 6.6 mg/kg i.p.)	Toxicity deaths ([1]; 6.6 mg/kg i.p.)	ID50 [2, 4]	T/C (median survival time of treated mice/median survival time of controls) ([1]; 100 mg/kg i.p.)	Toxicity deaths ([1]; 100 mg/kg i.p.)	T/C (median survival time of treated mice/median survival time of controls) ([1]; 200 mg/kg i.p.)	Toxicity deaths ([1]; 200 mg/kg i.p.)	IC50 [2, 5]	activity on HeLa cells cloning efficiency in vitro (in words) [2]	activity at 0.1 µg/mL [2, 6]	also measured
COc1cccc2c1C(=O)c1c(O)c3c(c(O)c1C2=O)C[C@@](O)(C(C)=O)C[C@@H]3O[C@H]1C[C@H](N)[C@H](O)[C@H](C)O1 [Daunorubicin, reference compound]	170% and 168% and 185%	1/10 and 0/6 and 0/10	155% and 168% and 190%	6/10 and 5/5 and 4/10	0.0083 µg/mL (≈ 0.0157 µM)	–	–	–	–	–	–	–	T/C (median survival time of treated mice/median survival time of controls) [1, 3]: 170% and 172% and 180%; Toxicity deaths [1, 3]: 0/10 and 0/6; activity at 0.00625 µg/mL ([2]; Homo sapiens, HeLa, 24 h, read-out: % of controls, dose 6.25 ng/ml, 24 hours, data of 3 experiments): 66%; IC50 ([2]; Homo sapiens, HeLa, 24 h, read-out: ID50, HeLa cloning efficiency, treatment for 24 hours): 0.009 µg/mL (≈ 0.0171 µM); % of controls ([2]; dose 3.12 ng/ml, 24 hours, data of 3 experiments): 105% and 100% and 70%; % of controls ([2]; dose 6.25 ng/ml, 24 hours, data of 3 experiments): 69% and 57%
C=C1[C@@H](NC(=O)C(F)(F)F)C[C@H](O[C@H]2C[C@](O)(C(C)=O)Cc3c(O)c4c(c(O)c32)C(=O)c2c(OC)cccc2C4=O)O[C@H]1C [IV-A, 4'-deoxy-4'-C-methylene-N-trifluoroacetyl-daunorubicin]	–	–	–	–	1.3 µg/mL (≈ 2.1 µM)	110%	0/5	110%	0/5	1.6 µg/mL (≈ 2.58 µM)	markedly less active than daunorubicin	–	T/C (median survival time of treated mice/median survival time of controls) ([1]; 400 mg/kg i.p.): 130%; Toxicity deaths ([1]; 400 mg/kg i.p.): 0/3; activity at 0.8 µg/mL ([2]; Homo sapiens, HeLa, 24 h, dose 800 ng/ml, 24 hours, read-out: % of controls): 115%; activity at 3.2 µg/mL ([2]; Homo sapiens, HeLa, 24 h, dose 3200 ng/ml, 24 hours, read-out: % of controls): 7%; % of controls ([2]; dose 800 ng/ml, 24 hours): 116%
COc1cccc2c1C(=O)c1c(O)c3c(c(O)c1C2=O)CC(O)(C(C)=O)CC3OC1CC(N)C(C)C(C)O1 (stereo not drawn) [V-B, 4'-deoxy-4'-epi-C-methyl-daunorubicin]	130%	0/10	140%	0/10	–	–	–	–	–	0.0077 µg/mL (≈ 0.0147 µM)	maintained a high cytotoxic activity	0%	T/C (median survival time of treated mice/median survival time of controls) ([1]; 10.0 mg/kg i.p.): 140%; Toxicity deaths ([1]; 10.0 mg/kg i.p.): 0/9; activity at 0.0062 µg/mL ([2]; Homo sapiens, HeLa, 24 h, dose 6.2 ng/ml, 24 hours, read-out: % of controls): 54%; activity at 0.025 µg/mL ([2]; Homo sapiens, HeLa, 24 h, dose 25 ng/ml, 24 hours, read-out: % of controls): 4%
COc1cccc2c1C(=O)c1c(O)c3c(c(O)c1C2=O)C[C@@](O)(C(C)=O)C[C@@H]3O[C@H]1C[C@H](N)[C@@](O)(CN)[C@H](C)O1 [V-C, 4'-C-aminomethyl-daunorubicin]	–	–	–	–	–	172%	0/5	204%	0/4	1 µg/mL (≈ 1.8 µM)	markedly less active than daunorubicin	143%	T/C (median survival time of treated mice/median survival time of controls) ([1]; 50 mg/kg i.p.): 181%; Toxicity deaths ([1]; 50 mg/kg i.p.): 0/6; antitumor activity compared with daunorubicin (in words) ([1]; at a dose of 200 mg/kg): more active than daunorubicin; activity at 0.4 µg/mL ([2]; Homo sapiens, HeLa, 24 h, dose 400 ng/ml, 24 hours, read-out: % of controls): 141%; activity at 1.6 µg/mL ([2]; Homo sapiens, HeLa, 24 h, dose 1600 ng/ml, 24 hours, read-out: % of controls): 3.8%
